# PubChem BioAssay AID651897 (Broad Institute, 2012)
# Molecular target: cruzain (cruzipain), Trypanosoma cruzi
# Experiment: cruzain protease inhibitors, dose response, biochemical, dry powder (AID 651897)
# Settings: purified recombinant cruzain, Z-Phe-Arg-AMC fluorescence
smiles,measurement,value
C[C@H]1CN([C@@H](C)CO)C(=O)c2cccc(NC(=O)c3ccncc3)c2O[C@@H]1CN(C)Cc1ccc(Oc2ccccc2)cc1,IC50,13.2 µM
